Data on one compound can be found in patent US10253011B1, “Lubiprostone crystals and methods for preparing the same” (CHIROGATE INTERNATIONAL INC., priority 2018, dated 2019).

Each structure is given as a SMILES string.

Format in all cases: physicochemical
Data set [1] in a line: Storage stability of Lubiprostone crystal V (crystalline form and degradation to impurity A). The conditions noted are these: six months of storage at about −20° C.
The nature of data set [2]: Crystal form transformation of Lubiprostone crystal V stirred in isopropyl acetate/heptane, XRPD. The conditions noted are these: stirred in isopropyl acetate (0.16 ml)/heptane (0.84 ml) at 20° C., within two hours. As to the method:
X-ray Powder Diffraction (XRPD) Analysis: The XRPD patterns were collected on a Bruker D2 PHASER diffractometer with fixed divergence slits and 1D LYNXEYE detector. The samples (ca. 100 mg) were flatly placed on a sample holder. The prepared samples were analyzed over a 2θ range from 5° to 50° with step size of 0.02 degrees and step time of 1 second using CuKα radiation at a power of 10 mA and 30 kV. The CuKβ radiation was removed by a divergent beam nickel filter.
Lubiprostone crystal V (0.20 g, from Example 9) was added to a mixture of isopropyl acetate (0.16 ml) and heptane (0.84 ml)(i.e., the solvent system for crystallization of US 2010/056808), and the mixture was stirred at 20° C. for 2 hours. The resulting suspension was filtered and rinsed, and then dried under high vacuum at room temperature to give Lubiprostone crystal I. The XRPD results are shown in FIGS. 12(a) and 12(b).
Therefore, the Lubiprostone crystal V is a novel crystalline form of Lubiprostone, and the crystalline form shown in FIG. 2 found in the unit cell of Lubiprostone crystal II by optical microscope is an enantiomorph of Lubiprostone, rather than Lubiprostone crystal V.

A short description of data set [3]: Crystal form stability of Lubiprostone crystal V in the third solvent used for seeded crystallization.

Turning to `CCCCC(F)(F)[C@@]1(O)CC[C@H]2[C@@H](CC(=O)[C@@H]2CCCCCCC(=O)O)O1` [Lubiprostone crystal V, Lubiprostone], in data set [1], the “stability on storage (other crystalline forms, degraded products of impurity A)” value was “good stability”. In addition, the “conversion of crystalline form to Lubiprostone crystal I (XRPD)” value in data set [2] was “completely converted”. In addition, the “conversion of crystalline form to Lubiprostone crystal I” value in data set [3] (esters such as isopropyl acetate as third solvent) is “rapidly converted”. In addition, the “stability of crystal form against conversion to Lubiprostone crystal I” value in data set [3] (o-xylene, m-xylene, ethyl ether, isopropyl ether or methyl tert-butyl ether as third solvent) is given as “very stable”.
